According to US9387221B2, “SDF-1 binding nucleic acids and the use thereof in cancer treatment” (NOXXON Pharma AG, priority 2010, dated 2016):
Entries after “also recorded” stand apart in the source; their conditions may differ.

tested on: biotinylated human D-SDF-1; experiment: Competitive pull-down binding assay; conditions: aptamer level; reference 192-A10-001
Description: In order to compare different D-SDF-1 binding aptamers, a competitive ranking assay was performed. For this purpose the most affine aptamer available was radioactively labeled (see above) and served as reference. […] An excess of de- and renatured non-labeled D-RNA aptamer variants was added to different concentrations (e.g. 2, 10, and 50 nM) with the labeled reference aptamer to parallel binding reactions. The aptamers to be tested competed with the reference aptamer for target binding, thus decreasing the binding signal in dependence of their binding characteristics.

Sequence	binding affinity in competitive pull-down binding assay vs. 192-A10-001
GUGCUGCGGGGGUUAGGGCUCAAAGUCGGCCUGCAGCAC (chemistry not given here) [197-H2]	Much weaker binding affinity
GCUGUGAAAGUAACAUGUCAAUGAAAGGUAACCACUGC (aptamer; Made as D-RNA aptamer and L-RNA Spiegelmer, tested form not given here, further chemistry not given here) [192-G11]	Weaker binding affinity
GCUGUAAAAGUAACAAGUCAAUGAAAGGUAACUACAGC (aptamer; Made as D-RNA aptamer and L-RNA Spiegelmer, tested form not given here, further chemistry not given here) [192-E10]	Weaker binding affinity; also recorded: reduced binding affinity
GCUGUGAAAGUAACAUGUCAAUGAAAGGUAGCCGCAGC (aptamer; Made as D-RNA aptamer and L-RNA Spiegelmer, tested form not given here, further chemistry not given here) [192-H9]	much weaker binding affinity
AGCGUGAAGGGGUUAGGGCUCGAAGUCGGCUGACACGCU (Made as D-RNA aptamer and L-RNA Spiegelmer, tested form not given here, further chemistry not given here) [191-A5]	Much weaker binding affinity
GCUGUGAAAGUAACACGUCAAUGAAAGGUAACCGCAGC (aptamer; Made as D-RNA aptamer and L-RNA Spiegelmer, tested form not given here, further chemistry not given here) [192-F10]	Weaker binding affinity; also recorded: reduced binding affinity
GUGUUGCAGGGGUUAGGGCUUGAAGUCGGCCUGCAGCAC (chemistry not given here) [197-E3]	weaker binding affinities
GUGCUGCGGGGGUUAGGGCUCGAAGUCGGCCCGCAGCAC (chemistry not given here) [197-H3]	weaker binding affinities

same assay, conditions: compared with 190-A3-001

Sequence	binding affinity of derivatives of 190-A3-001
UGAGAUAGGGGUUAGGGCUUAAAGUCGGCUGAUUCUCA (aptamer; Made as D-RNA aptamer and L-RNA Spiegelmer, tested form not given here, further chemistry not given here) [190-A3-003]	does not have an influence on the binding affinity

same assay, conditions: reference 191-D5-007

Sequence	binding affinity in competitive pull-down binding assay vs. 191-D5-007
GGCCGGGGUUAGGGCUAGAAGUCGGCCGGCC (chemistry not fully specified) [197-B2-006-31a]	the same as shown for 191-D5-007 and 197-B2-006
CGCCGGGGUUAGGGCUAGAAGUCGGCCGGCG (chemistry not fully specified) [197-B2-006-31b]	the same as shown for 191-D5-007 and 197-B2-006
CCCGGGUUAGGGCUAGAAGUCGGCGGG (chemistry not fully specified) [191-D5-029]	reduced binding affinity

same assay, conditions: reference 193-G2-001

Sequence	binding to human SDF-1 in comparison to 193-G2-001
GCGUGGUGUGAUCUAGAUGUAGUGGCUGAUCCUAGUCAGGUGCGC (chemistry not fully specified) [193-D2-002]	reduced binding; also recorded: weaker binding affinities
GCGAGGUGUGAUCUAGAUGUAGUGGCUGAUCCUAGUCAGGUGCGC (chemistry not fully specified) [193-G1-002]	reduced binding; also recorded: weaker binding affinities
GCAUGGUGUGAUCUAGAUGUAGUGGCUGAUCCUAGUCAGGUGCCC (chemistry not fully specified) [193-A1-002]	reduced binding; also recorded: weaker binding affinities

same assay, conditions: vs. 192-A10-001 and 192-A10-008

Sequence	binding affinity of derivatives of 192-A10-001 in competitive pull-down binding assay
GUGAAAGCAACAUGUCAAUGAAAGGUAGCCGC (chemistry not given here) [192-A10-004]	reduced binding affinity
GGGCAAAGCAACAUGUCAAUGAAAGGUAGCGCCC (aptamer; chemistry not given here) [192-A10-020]	weaker, much weaker or very much weaker binding affinity
GCGUGAAAGCAACAUGUCAAUGAAAGGUAGCCGCGC (chemistry not fully specified) [192-A10-008]	same binding affinity as shown for 192-A10-002
CUGUGAAAGCAACAUGUCAAUGAAAGGUAGCCGCAG (aptamer; Made as D-RNA aptamer and L-RNA Spiegelmer, tested form not given here, further chemistry not given here) [192-A10-002]	without reduction of binding affinity
GGCCAAAGCAACAUGUCAAUGAAAGGUAGCGGCC (aptamer; chemistry not given here) [192-A10-021]	weaker, much weaker or very much weaker binding affinity
UGUGAAAGCAACAUGUCAAUGAAAGGUAGCCGCA (aptamer; chemistry not given here) [192-A10-003]	reduced binding affinity
GCCCAAAGCAACAUGUCAAUGAAAGGUAGCGGGC (aptamer; chemistry not given here) [192-A10-022]	weaker, much weaker or very much weaker binding affinity
CGCGAAAGCAACAUGUCAAUGAAAGGUAGCCGUG (aptamer; chemistry not given here) [192-A10-019]	weaker, much weaker or very much weaker binding affinity

same assay, conditions: vs. 193-G2-001 and 193-G2-012

Sequence	binding affinity of derivatives of 193-G2-001 and 193-C2-001 in competitive pull-down binding assay
UGGUGUGAUCUAGAUGUAGUGGCUGAUCCUAGUCAGGUA (Made as D-RNA aptamer and L-RNA Spiegelmer, tested form not given here, further chemistry not given here) [193-C2-005]	reduced binding affinity
GGUGUGAUCUAGAUGUAGUGGCUGAUCCUAGUCAGGU (Listed both as L-RNA Spiegelmer and D-RNA aptamer, further chemistry not given here) [193-C2-006]	reduced binding affinity
GUGUGAUCUAGAUGUAGUGGCUGAUCCUAGUCAGG (Listed both as L-RNA Spiegelmer and D-RNA aptamer, further chemistry not given here) [193-C2-007]	reduced binding affinity
GUGGUGUGAUCUAGAUGUAGUGGCUGAUCCUAGUCAGGUAC (chemistry not fully specified) [193-C2-004]	reduced binding affinity
GCGCGUGUGAUCUAGAUGUAUUGGCUGAUCCUAGUCAGGGCGC (chemistry not fully specified) [193-G2-014]	reduced binding affinity
CGUGGUGUGAUCUAGAUGUAGUGGCUGAUCCUAGUCAGGUACG (chemistry not fully specified) [193-C2-003]	reduced binding affinity

same assay, conditions: vs. 197-B2 and 191-D5-007

Sequence	binding affinity of truncated derivatives of 197-B2
GCCGGGGUUAGGGCUAGAAGUCGGCCGGC (chemistry not fully specified) [197-B2-006]	fully persisted
GCGGGGGUUAGGGCUAGAAGUCGGCCUGC (chemistry not fully specified) [197-B2-005]	without loss of binding affinity

target: SDF-1 (Homo sapiens, UniProt P48061); experiment: Inhibition of SDF-1-induced chemotaxis, Jurkat cells; format: cell-based; conditions: Spiegelmer coupled to 40 kDa PEG at the 5′-end
Description: The human T cell leukemia cell line Jurkat, the human leukemic monocyte lymphoma cell line U937, the human pre-B cell leukemia cell line BV-173 and human pre-B ALL cell line Nalm-6 express CXCR4. […] All cells used were obtained from the DSMZ (Braunschweig). All cell lines were cultivated at 37° C. and 5% CO2 in RPMI 1640 medium with Glutamax (Invitrogen, Karlsruhe, Germany) which contains 10% fetal bovine serum, 100 units/ml penicillin and 100 μg/ml streptomycin (Invitrogen, Karlsruhe, Germany). One day before the experiment, cells were seeded in a new T175 flask with a density of 0.3×10^6/ml (Jurkat, U937, BV-173) or 0.75×10^6/ml (Nalm-6), respectively.
For the experiment, cells were centrifuged (5 min at 300 g), resuspended, counted and washed once with 15 ml HBH (Hanks balanced salt solution containing 1 mg/ml bovine serum albumin and 20 mM HEPES; Invitrogen, Karlsruhe, Germany). Then the cells were resuspended at 1.33×10^6/ml (Jurkat, U937, BV-173) or 2.67×10^6/ml (Nalm-6), respectively. Cells were then allowed to migrate through the porous membranes of the filter plates for three hours towards a solution containing SDF-1 and various amounts of Spiegelmer. The stimulation solutions (SDF-1+various concentrations of Spiegelmer) were made up as 10× solutions in a 0.2 ml low profile 96-tube plate. 212 μl HBH were pipetted into the lower compartments of the transport plate and 23.5 μl of the stimulation solutions were added. All conditions were made up as triplicates. After 20 to 30 min the filter plate was inserted into the plate containing the stimulation solutions and 75 μl of a cell suspension with 1.33×10^6/ml or 2.67×10^6/ml, respectively, were added to the wells of the filter plate (1×10^5 or 2×10^5 cells/well). The cells were then allowed to migrate for 3 h at 37° C. For calibration, 0, 10 and 30 μl of the cell suspension was added to 235, 225 and 205 μl HBH, respectively, in wells of a separate 96-well plate. After 3 hours incubation, the insert plate was removed and 30 μl resazurin working solution (440 μM in PBS) were added to the lower wells and to the wells of the calibration plate. The plates were then incubated at 37° C. for 2.5 h. After incubation, 100 μl of each well were transferred to a black 96 well plate.
For evaluation, fluorescence values were corrected for background fluorescence (no cells in well). Then the difference between experimental conditions with and without SDF-1 was calculated. The value for the sample without Spiegelmer (SDF-1 only) was set 100% and the values for the samples with Spiegelmer were calculated as percent of this. For a dose-response curve the percent-values were plotted against Spiegelmer concentration and the IC50-value (concentration of Spiegelmer at which 50% of the activity without Spiegelmer is present) was determined graphically from the resulting curve.

Chain of SDF-1 (P48061 22-89): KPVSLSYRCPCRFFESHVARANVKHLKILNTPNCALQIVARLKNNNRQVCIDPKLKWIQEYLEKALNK

Sequence	influence of the PEG-moiety on Spiegelmers potency to inhibit SDF-1 induced chemotaxis
GCCGGGGUUAGGGCUAGAAGUCGGCCGGC (chemistry not fully specified) [197-B2-006]	no influence
GCGUGAAAGCAACAUGUCAAUGAAAGGUAGCCGCGC (chemistry not fully specified) [192-A10-008]	no influence
